{"source": "patent US12448400B2", "about": "“KRAS G12D modulating compounds” (priority 2023, dated 2025)", "key": {"[1]": {"test": "Mouse oral cassette pharmacokinetics", "type": "in vivo, male CD-1 mice", "settings": "male, CD-1, mouse, in vivo, po, 30 mg/kg", "outline": "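Male CD-1 mice (n=4) dosed orally by gavage at 30 mg-eq./kg per compound as cassettes of 1–3 compounds in 10 w/v % Captisol/50 mM citrate. Plasma sampled 0.5–24 h post dose, analysed by LC-MS/MS; Cmax and AUClast from non-compartmental analysis.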"}, "[2]": {"test": "Dog oral pharmacokinetics", "set-up": "species or system Male Beagle dogs", "settings": "male, Beagle, in vivo", "description": "Dog Oral Pharmacokinetics\n(§1) Test compounds were formulated in solution formulations (10% w/v % Sulfobutylether-p-cyclodextrin; 90% w/v % 50 mM Citrate Buffer) and administered orally at 5 or 10 mg-eq./kg to a group of three Male Beagle dogs. The animals were fasted overnight prior to dose administration and up to four hours after dosing. The test articles were administrated by oral gavage at a dose volume of 5 ml/kg.\n(§2) Blood samples were collected into K2EDTA tubes at predose and 0.25, 0.5, 1, 2, 4, 6, 8, 12, 24 hours post dose, and once daily collection post 24 hours up to 168 hours. Whole blood were stored on wet ice and processed to plasma by centrifugation (3500 rpm for 10 minutes at 5° C.) within 1 hour of collection. Plasma samples were placed in Micronic 96 well tubes and stored at −80° C. until transferred. Plasma concentration of the test compounds was determined by LC-MS/MS. Pharmacokinetic parameters were estimated using non-compartment model analysis. The maximum observed concentration (Cmax) and area under the curve from time of dosing to last measured concentration (AUClast) were calculated and reported."}, "[3]": {"test": "Rat oral pharmacokinetics", "set-up": "species or system Male Sprague Dawley rats", "settings": "male, Sprague Dawley, in vivo", "description": "Rat Oral Pharmacokinetics\nas §1, with “(10” for “(10%”, “orally” for “orally at 5 or 10 mg-eq./kg”, “Sprague Dawley rats.” for “Beagle dogs.”, “mL-eq/kg.” for “ml/kg.”\nas §2, with “collected” for “collected into K2EDTA tubes”, “12, 24, 48 and 72” for “12, 24”, “post dose into K2EDTA tubes” for “post dose,”, “and” for “and once daily collection post 24 hours up to 168 hours. Whole blood were”, “ice until processed. Whole blood was” for “ice and”, “within 30 minutes” for “within 1 hour”"}, "[4]": {"system": "GP2D (KRAS G12D) cells", "test": "2D cell viability assay (CellTiter-Glo)", "type": "cell-based", "settings": "96 h; GP2D cells, 4 days, CellTiter-Glo luminescence; read-out: G12D 2D EC50", "outline": "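Viability was read by CellTiter-Glo after 4 days at 37 °C of 2D culture of KRAS G12D GP2D cells (1000/well, RPMI, 10% FBS) on pre-spotted threefold compound dilutions. EC50 was fitted with a sigmoidal dose-response model as the point of half-maximal luminescence loss.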"}}, "data": [{"smiles": "C#Cc1c(F)ccc2cc(O)cc(-c3nc4c5c(nc(OC[C@@]67CCCN6C[C@H](F)C7)nc5c3F)N3C[C@H]5CC[C@H](N5)[C@H]3CCC4)c12", "note": "[Comp. Ex. 75, reference compound]", "values": [{"measurement": "Mouse Parent AUC", "setting": "[1]", "value": 0.051, "unit": "µM·h"}, {"measurement": "Dog Parent % F", "setting": "[2]; 10 mg/kg", "value": 0.6, "unit": "%"}, {"measurement": "Dog Parent AUC", "setting": "[2]; 10 mg/kg", "value": 0.071, "unit": "µM·h"}]}, {"smiles": "C#Cc1c(F)ccc2cccc(-c3nc4c5c(nc(OC[C@@]67CCCN6C[C@H](F)C7)nc5c3F)N3C[C@H]5CC[C@H](N5)[C@H]3CCC4)c12", "note": "[Comp. Ex. 76, (6aR,7S,10R)-2-(8-ethynyl-7-fluoronaphthalen-1-yl)-1-fluoro-13-(((2R,7aS)-2-fluorotetrahydro-1H-pyrrolizin-7a(5H)-yl)methoxy)-5,6,6a,7,8,9,10,11-octahydro-4H-3,11a,12,14,15-pentaaza-7,10-methanocyclohepta[4,5]cycloocta[1,2,3-de]naphthalene, reference compound]", "values": [{"measurement": "Mouse Parent AUC (nM * h)", "setting": "[1]", "value": "1,400 nM * h"}, {"measurement": "Rat Parent % F", "setting": "[3]; 5 mg/kg", "value": 2, "unit": "%"}, {"measurement": "Rat Parent AUC", "setting": "[3]; 5 mg/kg", "value": 0.059, "unit": "µM·h"}]}, {"smiles": "Cc1oc(=O)oc1CN1[C@@H]2CC[C@H]1[C@H]1CCCc3nc(-c4cc(O)cc5ccc(F)c(OC(F)(F)F)c45)c(F)c4nc(OC[C@@]56CCCN5C[C@H](F)C6)nc(c34)N1C2", "note": "[Example 18, 4-(((6aR,7S,10R)-1-fluoro-2-(7-fluoro-3-hydroxy-8-(trifluoromethoxy)naphthalen-1-yl)-13-(((2R,7aS)-2-fluorotetrahydro-1H-pyrrolizin-7a(5H)-yl)methoxy)-5,6,6a,7,8,9,10,11-octahydro-4H-3,11a,12,14,15-pentaaza-7,10-methanocyclohepta[4,5]cycloocta[1,2,3-de]naphthalen-15-yl)methyl)-5-methyl-1,3-dioxol-2-one]", "values": [{"measurement": "Dog Parent % F", "setting": "[2]; 10 mg/kg", "value": 12, "unit": "%"}, {"measurement": "Dog Parent AUC", "setting": "[2]; 10 mg/kg", "value": 0.6, "unit": "µM·h"}]}, {"smiles": "C#Cc1c(F)ccc2cc(N)cc(-c3nc4c5c(nc(OC[C@@]67CCCN6C[C@H](F)C7)nc5c3F)N3C[C@H]5CC[C@@H]([C@H]3CCC4)N5Cc3oc(=O)oc3C)c12", "note": "[Example 33, 4-(((6aR,7S,10R)-2-(3-amino-8-ethynyl-7-fluoronaphthalen-1-yl)-1-fluoro-13-(((2R,7aS)-2-fluorotetrahydro-1H-pyrrolizin-7a(5H)-yl)methoxy)-5,6,6a,7,8,9,10,11-octahydro-4H-3,11a,12,14,15-pentaaza-7,10-methanocyclohepta[4,5]cycloocta[1,2,3-de]naphthalen-15-yl)methyl)-5-methyl-1,3-dioxol-2-one]", "values": [{"measurement": "Mouse Parent AUC (nM * h)", "setting": "[1]", "value": "1,500 nM * h"}, {"measurement": "EC50", "setting": "[4]", "value": 0.71, "unit": "nM"}, {"measurement": "Rat Parent % F", "setting": "[3]; 15 mg/kg", "value": 3.3, "unit": "%"}, {"measurement": "Rat Parent AUC", "setting": "[3]; 15 mg/kg", "value": 0.18, "unit": "µM·h"}, {"measurement": "Dog Parent % F", "setting": "[2]; 10 mg/kg", "value": 11, "unit": "%"}, {"measurement": "Dog Parent AUC (nM * h)", "setting": "[2]; 10 mg/kg", "value": "2,200 nM * h"}]}, {"smiles": "C#Cc1c(F)ccc2cc(N)cc(-c3nc4c5c(nc(OC[C@@]67CCCN6C[C@H](F)C7)nc5c3F)N3C[C@H]5CC[C@@H]([C@H]3CCC4)N5Cc3oc(=O)oc3CC)c12", "note": "[Example 34, 4-(((6aR,7S,10R)-2-(3-amino-8-ethynyl-7-fluoronaphthalen-1-yl)-1-fluoro-13-(((2R,7aS)-2-fluorotetrahydro-1H-pyrrolizin-7a(5H)-yl)methoxy)-5,6,6a,7,8,9,10,11-octahydro-4H-3,11a,12,14,15-pentaaza-7,10-methanocyclohepta[4,5]cycloocta[1,2,3-de]naphthalen-15-yl)methyl)-5-ethyl-1,3-dioxol-2-one]", "values": [{"measurement": "Mouse Parent AUC (nM * h)", "setting": "[1]", "value": "1,300 nM * h"}, {"measurement": "EC50", "setting": "[4]", "value": 0.4, "unit": "nM"}, {"measurement": "Rat Parent % F", "setting": "[3]; 15 mg/kg", "value": 5, "unit": "%"}, {"measurement": "Rat Parent AUC", "setting": "[3]; 15 mg/kg", "value": 0.27, "unit": "µM·h"}, {"measurement": "Dog Parent % F", "setting": "[2]; 5 mg/kg", "value": 12, "unit": "%"}, {"measurement": "Dog Parent AUC (nM * h)", "setting": "[2]; 5 mg/kg", "value": "1,200 nM * h"}]}]}
